The source of these data is ChEMBL document CHEMBL1138883, “Synthesis and biological evaluation of new asymmetrical bisintercalators as potential antitumor drugs” (2006).

Structures are written as SMILES.

The test system of assay [1] is PC-3. Briefly: Cytotoxicity against PC3 cells by SRB assay after 48 hrs. The conditions noted are these: Homo sapiens, PC-3, 48 h. The format is functional.
Assay [2] is described as follows: Ratio of K(app) for [A-T] to [G-C].

In assay [1], `COc1cc2c(=O)c3c(NCCCN(C)CCCN4C(=O)c5cccc6cc([N+](=O)[O-])cc(c56)C4=O)ccc4c(=O)n(CCN(C)C)c(=O)n(c2cc1OC)c43` yielded a concentration for 50% growth inhibition (GI50) of 17 nM, an LC50 (concentration for 50% net cell kill) of 4000 nM and a TGI of 340 nM. In assay [2], the Selectivity ratio was 1.6.

With `COc1ccc2c(c1)c(=O)c1c(NCCCN(C)CCCN3C(=O)c4cccc5cc([N+](=O)[O-])cc(c45)C3=O)ccc3c(=O)n(CCN(C)C)c(=O)n2c31`, in assay [1], the GI50 turned out to be 83 nM, the LC50 (concentration for 50% net cell kill) is 9300 nM and the TGI stood at 500 nM. Further, the Selectivity ratio in assay [2] stood at 4.8.

As to `CN(C)CCCNC(=O)c1ccc(NCCCN(C)CCCN2C(=O)c3cccc4cccc(c34)C2=O)c2c(O)c3ccccc3nc12`, in assay [1], the GI50 was determined as 600 nM, the LC50 (concentration for 50% net cell kill) was 4100 nM and the TGI worked out at 990 nM. The Selectivity ratio in assay [2] is 6.9.

In the case of `CN(C)CCCNC(=O)c1ccc(NCCCN(C)CCCNc2ccc3c(=O)n(CCCN(C)C)c(=O)n4c5ccccc5c(=O)c2c34)c2c(O)c3ccccc3nc12`, in assay [1], the GI50 was determined as 250 nM, the LC50 (concentration for 50% net cell kill) came to 2500 nM and total growth inhibition (TGI) required 600 nM. Further, the Selectivity ratio in assay [2] stood at 14.

In assay [1], `CN(C)CCNC(=O)c1ccc(NCCCN(C)CCCNc2ccc3c(=O)n(CCN(C)C)c(=O)n4c5ccccc5c(=O)c2c34)c2c(O)c3ccccc3nc12` came in with a GI50 of 100 nM, an LC50 (concentration for 50% net cell kill) of 8300 nM and a total growth inhibition concentration (TGI) of 1000 nM. Besides, in assay [2], the Selectivity ratio is 1.3.

With `CN(C)CCN1C(=O)c2cccc3cc([N+](=O)[O-])cc(c23)C1=O` [MITONAFIDE], in assay [1], the GI50 came out at 150 nM and the TGI is 3800 nM.

Regarding `CN(C)CCNC(=O)c1ccc(NCCCN(C)CCCN2C(=O)c3cccc4cc([N+](=O)[O-])cc(c34)C2=O)c2c(O)c3ccccc3nc12`, in assay [1], it took 600 nM to inhibit growth by half (GI50), the LC50 (concentration for 50% net cell kill) amounted to 4400 nM and the TGI stood at 1000 nM. In addition, the Selectivity ratio in assay [2] is 7.1.

On to `CN(C)CCCNC(=O)c1ccc(NCCCN(C)CCCN2C(=O)c3cccc4cc([N+](=O)[O-])cc(c34)C2=O)c2c(O)c3ccccc3nc12`, for which, in assay [1], the GI50 is 50 nM, the LC50 (concentration for 50% net cell kill) is 3600 nM and the TGI is 90 nM. The Selectivity ratio in assay [2] is 6.1.

For the compound `CN(C)CCCn1c(=O)c2ccc(NCCCN(C)CCCN3C(=O)c4cccc5cccc(c45)C3=O)c3c(=O)c4ccccc4n(c1=O)c23`, in assay [1], halving of growth (GI50) required 420 nM, the LC50 (concentration for 50% net cell kill) worked out at 3800 nM and total growth inhibition (TGI) required 830 nM. The Selectivity ratio in assay [2] was 3.4.

`COc1ccc2c(c1)c(=O)c1c(NCCCN(C)CCCN3C(=O)c4cccc5cccc(c45)C3=O)ccc3c(=O)n(CCN(C)C)c(=O)n2c31`: in assay [1], the GI50 amounted to 51 nM, the LC50 (concentration for 50% net cell kill) stood at 4000 nM and the TGI amounted to 850 nM. Besides, in assay [2], the Selectivity ratio stood at 4.5.

As for `CN(C)CCNC(=O)c1ccc(NCCCN(C)CCCN2C(=O)c3cccc4cccc(c34)C2=O)c2c(O)c3cc([N+](=O)[O-])ccc3nc12`, in assay [1], halving of growth (GI50) required 89 nM, the LC50 (concentration for 50% net cell kill) is 3000 nM and the concentration for total growth inhibition (TGI) came to 630 nM. The Selectivity ratio in assay [2] turned out to be 1.4.

In assay [1], `COc1cc2nc3c(C(=O)NCCN(C)C)ccc(NCCCN(C)CCCN4C(=O)c5cccc6cccc(c56)C4=O)c3c(O)c2cc1OC` displayed a GI50 of 150 nM, an LC50 (concentration for 50% net cell kill) of over 50000 nM and a TGI of 3800 nM. For the same compound, the Selectivity ratio in assay [2] is 1.3.

Consider `CN(C)CCCn1c(=O)c2ccc(NCCCN(C)CCCN3C(=O)c4cccc5cc([N+](=O)[O-])cc(c45)C3=O)c3c(=O)c4ccccc4n(c1=O)c23`, for which, in assay [1], the GI50 was 1700 nM, the LC50 (concentration for 50% net cell kill) is 6600 nM and the TGI stood at 3200 nM. Moreover, the Selectivity ratio in assay [2] was 20.

In assay [1], `CN(C)CCNC(=O)c1ccc(NCCCN(C)CCCN2C(=O)c3cccc4cccc(c34)C2=O)c2c(O)c3ccccc3nc12` registered a GI50 of 520 nM, an LC50 (concentration for 50% net cell kill) of 5400 nM and a TGI of 2000 nM. The Selectivity ratio in assay [2] was found to be 4.1.

In assay [1], `CN(C)CCNC(=O)c1ccc(NCCCN(C)CCCN2C(=O)c3cccc4cc([N+](=O)[O-])cc(c34)C2=O)c2c(O)c3cc([N+](=O)[O-])ccc3nc12` gave a GI50 of 8 nM, an LC50 (concentration for 50% net cell kill) of 4100 nM and a TGI of 1300 nM. Also, in assay [2], the Selectivity ratio worked out at 2.1.

In assay [1], `CN(C)CCNC(=O)c1ccc(NCCNCCNCCN2C(=O)c3cccc4cccc(c34)C2=O)c2c(O)c3cc([N+](=O)[O-])ccc3nc12` returned a GI50 of 62 nM, an LC50 (concentration for 50% net cell kill) of 2500 nM and a total growth inhibition concentration (TGI) of 390 nM.

As for `CN(C)CCn1c(=O)c2ccc(NCCCN(C)CCCN3C(=O)c4cccc5cccc(c45)C3=O)c3c(=O)c4ccccc4n(c1=O)c23`, the LC50 (concentration for 50% net cell kill) in assay [1] is 2600 nM. The Selectivity ratio in assay [2] is 2.4.
